# Reference: US20240239789A1, “SALTS OF 2-BRO[…] DIETHYLAMIDE” (Ceruvia Lifesciences LLC, priority 2022, published 2024)
# Key:
# Format in all cases: physicochemical
# [1] = Dynamic vapor sorption (DVS) moisture sorption analysis
# Protocol: Sorption isotherms were obtained using a Hiden Isochema moisture sorption analyser (model IGAsorp), controlled by IGAsorp Systems Software V6.50.48. The sample was maintained at a constant temperature (25° C.) by the instrument controls. The humidity was controlled by mixing streams of dry and wet nitrogen, with a total flow of 250 mL/min. The instrument was verified for relative humidity content by measuring three calibrated Rotronic salt solutions (10-50-88%). The weight change of the sample was monitored as a function of humidity by a microbalance (accuracy +/−0.005 mg). A defined amount of sample was placed in a tared mesh stainless steel basket under ambient conditions. A full experimental cycle typically consisted of three scans (sorption, desorption and sorption) at a constant temperature (25° C.) and 10% RH intervals over a 0-90% range (60 minutes for each humidity level).
# [2] = Thermogravimetric analysis (TGA) weight loss after drying; settings: after drying in vacuo at 50° C. for 18 hours; between 25° C. and 200° C.; heating rate 20° C./min
# Protocol: TGA data were collected on a TA Instruments Discovery TGA equipped with a 25-position auto-sampler. The instrument was calibrated using a certified weight and certified Alumel and Nickel for temperature. A predefined amount of the sample, ca. 5 mg, was loaded into a pre-tared aluminum ACCUPIK™ sample pan and platinum crucible and was heated at 20° C./min from ambient (room) temperature to 400° C. unless otherwise stated. A nitrogen purge at 25 mL/min was maintained over the sample. The instrument control, data acquisition and analysis were performed with TA Instruments TRIOS software v4.1.1.33073.
# [3] = XRPD analysis ex DVS following equilibration at extremes of humidity; settings: 0% and 90% relative humidity
# Description: The crystalline salts of 2-Br-LSD were characterized by their powder X-ray diffraction patterns. Powder X-ray diffractograms of the crystalline salts of 2-Br-LSD described herein were collected on a PANalytical X'pert PRO diffractometer using Cu Kα radiation (45 kV, 40 mA), θ-θ goniometer, focusing mirror, divergence slit (½″), soller slits at both incident and divergent beam (4 mm) and a PIXcel detector. Data was presented using X'Pert Data Viewer, version 1.2d. XRPD patterns were acquired under ambient conditions via a transmission foil sample stage (polyimide—Kapton®, 12.7 μm thickness film). The data collection range was 2.994-35° 2θ with a continuous scan speed of 0.202004° s^−1. Lists of major XRPD peaks (relative intensity ≥10%) for the crystalline salts of the present disclosure are tabulated below.
# Sorption isotherms were obtained using a Hiden Isochema moisture sorption analyser (model IGAsorp), controlled by IGAsorp Systems Software V6.50.48. The sample was maintained at a constant temperature (25° C.) by the instrument controls. The humidity was controlled by mixing streams of dry and wet nitrogen, with a total flow of 250 mL/min. The instrument was verified for relative humidity content by measuring three calibrated Rotronic salt solutions (10-50-88%). The weight change of the sample was monitored as a function of humidity by a microbalance (accuracy +/−0.005 mg). […]
structure (smiles),measurement,setting,value
"Br.CCN(CC)C(=O)[C@@H]1C=C2c3cccc4[nH]c(Br)c(c34)C[C@H]2N(C)C1 [2-Br-LSD hydrobromide (Form 1), 2-bromolysergic acid diethylamide hydrobromide]",weight change upon dynamic vapor sorption analysis,"[1]; 25° C., RH range 0-90%, 10% RH intervals, 60 minutes for each humidity level",less than 0.5%
same,water retained at 0% RH (reversibility of water uptake),"[1]; 25° C., desorption to 0% RH",no water was retained
same,further weight increase between 60% RH and 90% RH,"[1]; 25° C., initial sorption cycle, between 60% RH and 90% RH",0.2 wt %
same,water gained during initial sorption cycle up to 60% RH,"[1]; 25° C., initial sorption cycle, up to 60% RH",0.21%
same,total water uptake,"[1]; 25° C., initial sorption cycle, up to 90% RH",0.4%
same,hygroscopicity,[1]; definition in b65: TGA <1% weight loss and DVS <about 0.5% weight change,non-hygroscopic
same,weight loss upon thermogravimetric analysis,[2],less than 1%
same,solid form change following equilibration at extremes of humidity,[3],no form change occurred
